Results taken from patent US20240382475A1, “Quinazoline Derivative, Or Preparation Method Therefor And Use Thereof” (Zhejiang Hisun Pharmaceutical Co., Ltd., priority 2021, published 2024).
Like-named read-outs stand apart in the source and are kept apart here.

How the values were obtained:
[1] = Pharmacokinetic evaluation in SD rats; format: in vivo; conditions: male, rat, plasma; for AUC(0-t): read-out: Area under curve AUC0-t; for half-life: read-out: Half-life T1/2 (converted)
Procedure: SD rats were used as the test animals, and LC/MS/MS was used to determine the drug concentrations at different moments in plasma after compound 11 of the present invention was administered to the rats through intravenous injection or intragastric administration. The pharmacokinetic characteristics of compound 11 of the present invention in SD rats were studied.
SD rats, male, 195-235 g, 6-8 weeks old, were purchased from Vital River Laboratory Animal Technology Co., Ltd.
Intravenous injection group: an appropriate amount of the compound to be tested was weighed, and an appropriate amount of DMA:30% Solutol HS-15:Saline=5:5:90 (v/v/v) was added respectively, vortexed, and a solution with a final concentration of 0.2 mg/mL was prepared.
Intragastric administration group: an appropriate amount of the compound to be tested was weighed, and an appropriate amount of DMA:30% Solutol HS-15:Saline=5:5:90 (v/v/v) was added, vortexed, and a solution with a final concentration of 1 mg/mL was prepared.
The SD rats were divided into intravenous injection group (3 rats/group) and intragastric administration group (3 rats/group) according to the compound to be tested.
Intravenous injection group: rats were fasted overnight and then administered by intravenous injection (administration dosage was 1 mg/kg, and administration volume was 5 mL/kg), and ate 4 hours after administration.
Intragastric administration group: rats were fasted overnight followed by intragastric administration (administration dosage was 10 mg/kg, and administration volume was 10 mL/kg), and ate 4 hours after administration.
(§1) Intravenous injection group: about 150 μL of blood was collected through jugular vein into EDTA-K2 anticoagulant tubes 0.083 hour, 0.25 hour, 0.5 hour, 1 hour, 2 hours, 4 hours, 8 hours and 24 hours after administration. The collected blood sample was placed on ice, and plasma was separated by centrifugation (centrifugation condition: 1500 g, 10 minutes). The collected plasma sample was stored at −40˜−20° C. before analysis.
as §1, with “Intragastric administration group:” for “Intravenous injection group:”, “about 100” for “about 150”, “tubes” for “tubes 0.083 hour,”
LC-MS/MS was used to determine the content of the compound to be tested in rat plasma after intravenous injection and intragastric administration of the compound.

[2] = system: human lung cancer NCI-H2122 subcutaneous xenotransplanted tumor; assay: Pharmacodynamic evaluation in nude mouse subcutaneous xenotransplanted model of human lung cancer NCI-H2122; format: in vivo, Balb/c nude mouse
Procedure: The anti-tumor effect and safety of compound 11 of the present invention were evaluated in a Balb/c nude mouse animal model of subcutaneous xenotransplanted NCI-H2122.
BALB/c; nude mice, female, 6-7 weeks old (the age of mice when tumor cells were inoculated), purchased from Jiangsu Jicui Yaokang Biotechnology Co., Ltd.
The solvent control group was given DMSO:castor oil:5% glucose injection=20:10:70 (v/v/v).
(§2) AMG-510: an appropriate amount of AMG-510 was weighed, and an appropriate amount of DMSO:castor oil:5% glucose injection=20:10:70 (v/v/v) was added. After the above mixture was fully dissolved, an appropriate amount of 1 M hydrochloric acid was added, vortexed and mixed to prepare a solution with a concentration of 3 mg/mL.
as §2, with “Compound 11:” for “AMG-510:”, “compound 11” for “AMG-510”
H2122 cells were cultured in 1640 culture medium containing 10% fetal bovine serum and 1% penicillin-streptomycin-amphotericin B solution. H2122 cells in the exponential growth phase were collected and resuspended in matrigel solution (matrigel:PBS=1:1 (V/V)) to a suitable concentration for subcutaneous tumor inoculation in nude mice.
Female Balb/c nude mice were subcutaneously inoculated with about 3.0×10^6H2122 cells on the right sides of their backs. When the average volume of the tumors reaches about 150-200 mm^3, the mice were randomly divided according to the tumor sizes with 6 mice in each group.
• Group 1 (G1), solvent control group; • Group 2 (G2), AMG-510 was given by intragastric administration at a dose of 30 mg/kg; • Group 3 (G3), Example 11 was given by intragastric administration at a dose of 30 mg/kg; • Group 4 (G4), AMG-510 and Example 11 were administered in combination, and the dosages were respectively: AMG-510, 30 mg/kg (QD); Example 11, 30 mg/kg (QD).
After tumor inoculation, routine monitoring included the effects of tumor growth and treatment on the normal behaviors of the animals, specifically the mobility, feeding and drinking, weight gain or loss, eyes, coat and other abnormalities of the experimental animals.
Calculation formulae for a relative tumor volume (RTV), a relative tumor proliferation rate (T/C) and a tumor inhibition percentage (IR) were as follows: • (1) TV (tumor volume)=½×a×b^2, wherein a and b represent the length and width of the tumor respectively; • (2) RTV (relative tumor volume)=Vt/Vo, wherein Vo is the tumor volume measured at the time of administration when grouping (i.e. do), and Vt is the tumor volume at each measurement; • (3) relative tumor proliferation rate T/C (%)=TRTV/CRTV×100%, wherein TRTV is the RTV of the treatment group and CRTV is the RTV of the control group; • (4) Tumor growth inhibition rate TGI(%)=(1−T/C)×100%; wherein, T and C are the relative tumor volumes of the treatment group and the control group at a specific time point. • (5) IR (%)=(1−TWt/TWc)×100%, wherein, TWt is the tumor weight of the treatment group and TWc is the tumor weight of the control group. The anti-tumor evaluation criteria are (cytotoxic drugs): T/C(%)>40% is invalid; T/C(%)≤40%, and after statistical processing, P<0.05 is effective.

[3] = 16 days after administration, 30 mg/kg each agent
[4] = end of the experiment, 30 mg/kg each agent

COc1cc2nc(C)nc(N[C@H](C)c3cccc(C#N)c3C)c2cc1N1CCC(C)(O)CC1 [Compound 11, (R)-3-(1-((6-(4-hydroxy-4-methylpiperidin-1-yl)-7-methoxy-2-methylquinazolin-4-yl)amino)ethyl)-2-methylbenzonitrile]
bioavailability ([1]; Oral 10 mg/kg vs injection 1 mg/kg, read-out: Bioavailability F): 79.4%
AUC(0-t) ([1]; Oral 10 mg/kg): 4860 ± 1670 ng·h/mL
half-life ([1]; Oral 10 mg/kg): 145 ± 127 min
Cmax ([1]; Oral 10 mg/kg, read-out: Plasma concentration Cmax): 1150 ± 349 ng/mL
AUC(0-t) ([1]; iv, injection 1 mg/kg): 612 ± 126 ng·h/mL
half-life ([1]; iv, injection 1 mg/kg): 43.8 ± 19.2 min
Relative tumor volume (x ± S) [2, 3]: 4.03 ± 0.67
TGI % [2, 3]: 20.7%
Tumor volume (x ± S) ([2]; Day 0 after administration, 30 mg/kg each agent, intragastric): 199 ± 18 mm^3
Tumor volume (x ± S) ([2]; Day 3 after administration, 30 mg/kg each agent, intragastric): 329 ± 36 mm^3
Tumor volume (x ± S) ([2]; Day 7 after administration, 30 mg/kg each agent, intragastric): 460 ± 53 mm^3
Tumor volume (x ± S) ([2]; Day 10 after administration, 30 mg/kg each agent, intragastric): 551 ± 60 mm^3
Tumor volume (x ± S) ([2]; Day 14 after administration, 30 mg/kg each agent, intragastric): 704 ± 88 mm^3
Tumor volume (x ± S) ([2]; Day 16 after administration, 30 mg/kg each agent, intragastric): 757 ± 90 mm^3
Tumor volume (x ± S) ([2]; Table 11, 16 days after administration, 30 mg/kg each agent, in mm³): 757 ± 90
Inhibition rate of tumor weight (%) [2, 4]: 16.8%
Tumor weight (g) (x ± S) [2, 4]: 0.6283 ± 0.0663 g
anti-tumor activity (conclusion in words) ([2]; under the combination with AMG-510, KRAS-G12C inhibitor non-sensitive cell line NCI-H2122): good anti-tumor activity
